According to PMC6522096, “Development and Evaluation of an ^18F-Radiolabeled Monocyclam Derivative for Imaging CXCR4 Expression” (Molecular Pharmaceutics, 2019):

Molecular target: T1, CXCR4 (Homo sapiens, UniProt P61073)
T1 construct: full-length receptor overexpressed in U87.CD4.CXCR4 glioma cells
Test: […]SDF-1 (CXCL12) displacement on U87.CD4.CXCR4 cells
Assay type: cell-based

T1 sequence (P61073 whole entry): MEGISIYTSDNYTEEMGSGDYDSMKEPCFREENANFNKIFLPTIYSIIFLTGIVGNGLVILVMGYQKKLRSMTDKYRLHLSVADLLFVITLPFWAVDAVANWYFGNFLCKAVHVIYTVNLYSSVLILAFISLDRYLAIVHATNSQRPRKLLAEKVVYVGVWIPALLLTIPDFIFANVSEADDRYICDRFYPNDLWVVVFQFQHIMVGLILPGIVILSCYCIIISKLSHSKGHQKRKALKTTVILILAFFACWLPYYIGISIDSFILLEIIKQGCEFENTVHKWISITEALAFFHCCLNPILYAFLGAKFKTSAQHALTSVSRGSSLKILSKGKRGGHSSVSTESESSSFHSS

SMILES: Fc1ccc(CNCCNCc2ccc(CN3CCCNCCNCCCNCC3)cc2)cc1 [compound 5, N^1-(4-((1,4,8,11-Tetraazacyclotetradecan-1-yl)methyl)benzyl)-N^2-(4-fluorobenzyl)ethane-1,2-diamine]
- IC50: 111 ± 4 nM

SMILES: c1ccc(CNCc2ccc(CN3CCCNCCNCCCNCC3)cc2)nc1 [AMD3465]
- IC50: 89.8 ± 3.5 nM
